Assay results taken from EP0726072A2, “Composition for the treatment of hypertension and congestive heart failure, containing an angiotensin II antagonist and an endopeptidase inhibitor” (BRISTOL-MYERS SQUIBB COMPANY, priority 1995, dated 1996).

Experiments:
cardiomyopathic hamsters [1] = experiment: Cardiovascular effects in conscious cardiomyopathic hamsters with compensated heart failure; assay type: in vivo, hamsters of the BIO TO-2 strain; conditions: for left ventricular end diastolic pressure, effect in words / left ventricular systolic pressure, effect in words: summary of the discussion, up to 90 minutes after last treatment
Protocol: (§1) The studies described in this experiment were conducted in male hamsters of the BIO TO-2 strain when they were approximately 260 days of age and weighed on average 115 g. These animals develop a genetic form of cardiomyopathy that progresses uniformly among animals through different stages of heart failure. By 240 - 300 days of age the cardiomyopathic hamsters are characterized (as compared with control hamsters) by low mean arterial pressure, a 40% reduction in cardiac output and a decrease in renal blood flow. They display elevated cardiac filling pressure, depressed ventricular function, increased peripheral vascular resistance and have an 8-10-fold increase in plasma atrial natriuretic peptide concentration.
(§2) The experiments were conducted in conscious, unrestrained, cardiomyphathic hamsters three hours after placement of cardivascular catheters using brief anesthesia. The catheters allowed measurement of mean arterial pressure, left ventricular end diastolic pressure, left ventricular systolic pressure and heart rate, and provided a means for the administration of agents intravenously.
In this series of experiments baseline measurements of left ventricular end diastolic pressure, left ventricular systolic pressure and heart rate were determined in groups of conscious cardiomyopathic hamsters. Compounds or vehicle were administered intravenously, and measurements were repeated at 30-minute intervals up to 90 minutes after administration of the last agent. BMS 186295 was administered at 30 µmol/kg, i.v. (0.3 ml) followed by a continuous i.v. infusion at 1 µmol/kg per min (0.01 ml/min). BMS 186295 was prepared in 0.028 M potassium hydroxide and diluted to a final concentration of 0.17 M potassium hydroxide. Potassium hydroxide solution (0.17 M) was administered intravenously to the vehicle group at 0.3 ml followed by a continuous infusion at 0.01 ml/min. SQ 28603 was dissolved in 0.84% sodium bicarbonate and administered at 30 µmol/kg, i.v. This dose of SQ 28603 was previously shown to result in a doubling of plasma atrial natriuretic peptide concentration within 90 minutes in this model. One group of cardiomyopathic hamsters received the combination of BMS 186295 and SQ 28603. In this group BMS 186295 was administered according to the same dosage regimen described above; 30 minutes after the bolus injection of BMS 186295, SQ 28603 was administered at 30 µmol/kg, i.v.
Differences in age, body weight and baseline values among groups were evaluated by analysis of variance. Differences in changes from baseline among groups were evaluated by analysis of covariance with repeated measures and contrasts. The baseline value for each variable was used as the covariate. The level of significance was taken at P < 0.05. All data are expressed as mean ± standard error of the mean.

cardiomyopathic hamsters [2] = conditions: 30 µmol/kg, i.v.; within 90 minutes; previously shown in this model; cited from earlier work
angiotensin II receptors = experiment: Inhibition of the pressor response to angiotensin II in conscious cardiomyopathic hamsters; assay type: in vivo, hamsters of the BIO TO-2 strain; conditions: for Change in mean arterial pressure: pressor response to angiotensin II 100 ng/kg i.v.
Protocol: as §1, §2
Preliminary experiments were conducted in conscious cardiomyopathic hamsters to determine a dose regimen of BMS 186295 that would nearly completely block the pressor response to angiotensin II for at least two hours. The pressor responses to two challenges of angiotensin II (100 ng/kg, i.v. dissolved in 0.9% sodium chloride, 1 ml/kg) were determined. This dose of angiotensin II produced over a 30% increase in mean arterial pressure. Based on the preliminary experiments, BMS 186295 was administered to 5 cardiomyopathic hamsters at 30 µmol/kg, i.v. followed by continuous i.v. infusion at 1 µmol/kg per min. Challenges of angiotensin II were then repeated at 10- to 30-minute intervals up to 150 minutes following the bolus injection of BMS 186295.

[3] = 30′, BMS 186295 30 µmol/kg i.v. + 1 µmol/kg per min, SQ 28603 30 µmol/kg i.v.
[4] = 60′, BMS 186295 30 µmol/kg i.v. + 1 µmol/kg per min, SQ 28603 30 µmol/kg i.v.
[5] = 90′, BMS 186295 30 µmol/kg i.v. + 1 µmol/kg per min, SQ 28603 30 µmol/kg i.v.
[6] = 30 minutes after last treatment, BMS 186295 30 µmol/kg i.v. + 1 µmol/kg per min, SQ 28603 30 µmol/kg i.v.
[7] = 60 minutes after last treatment, BMS 186295 30 µmol/kg i.v. + 1 µmol/kg per min, SQ 28603 30 µmol/kg i.v.
[8] = 90 minutes after last treatment, BMS 186295 30 µmol/kg i.v. + 1 µmol/kg per min, SQ 28603 30 µmol/kg i.v.
[9] = table line headed 'BMS 186295 SQ 28603', between Baseline and 30′ (time of treatment)

| SMILES | Heart Rate (cardiomyopathic hamsters [1]; [3]) [beats/min] | Left Ventricular End Diastolic Pressure (cardiomyopathic hamsters [1]; [3]) [mm Hg] | Left Ventricular Systolic Pressure (cardiomyopathic hamsters [1]; [3]) [mm Hg] | Heart Rate (cardiomyopathic hamsters [1]; [4]) [beats/min] | Left Ventricular End Diastolic Pressure (cardiomyopathic hamsters [1]; [4]) [mm Hg] | Left Ventricular Systolic Pressure (cardiomyopathic hamsters [1]; [4]) [mm Hg] | Heart Rate (cardiomyopathic hamsters [1]; [5]) [beats/min] | Left Ventricular End Diastolic Pressure (cardiomyopathic hamsters [1]; [5]) [mm Hg] | Left Ventricular Systolic Pressure (cardiomyopathic hamsters [1]; [5]) [mm Hg] | Left Ventricular End Diastolic Pressure, Change From Baseline (cardiomyopathic hamsters [1]; [6]) [mm Hg] | Left Ventricular Systolic Pressure, Change From Baseline (cardiomyopathic hamsters [1]; [6]) [mm Hg] | Left Ventricular End Diastolic Pressure, Change From Baseline (cardiomyopathic hamsters [1]; [7]) [mm Hg] | Left Ventricular Systolic Pressure, Change From Baseline (cardiomyopathic hamsters [1]; [7]) [mm Hg] | Left Ventricular End Diastolic Pressure, Change From Baseline (cardiomyopathic hamsters [1]; [8]) [mm Hg] | Left Ventricular Systolic Pressure, Change From Baseline (cardiomyopathic hamsters [1]; [8]) [mm Hg] | Heart Rate (cardiomyopathic hamsters [1]; Baseline, before treatment) [beats/min] | Left Ventricular End Diastolic Pressure (cardiomyopathic hamsters [1]; Baseline, before treatment) [mm Hg] | Left Ventricular Systolic Pressure (cardiomyopathic hamsters [1]; Baseline, before treatment) [mm Hg] | left ventricular end diastolic pressure, effect in words (cardiomyopathic hamsters [1]) | left ventricular systolic pressure, effect in words (cardiomyopathic hamsters [1]) | further results |
| --- | --- | --- | --- | --- | --- | --- | --- | --- | --- | --- | --- | --- | --- | --- | --- | --- | --- | --- | --- | --- | --- |
| O=C(O)CCNC(=O)C(CS)Cc1ccccc1 (racemic) [SQ 28603, (±)-N-[2-(mercaptomethyl)-1-oxo-3-phenylpropyl]-β-alanine] | 381 ± 9 | 14 ± 2 | 109 ± 5 | 366 ± 9 | 17 ± 3 | 105 ± 4 | 378 ± 8 | 16 ± 3 | 105 ± 5 | 4 ± 1 | -8 ± 1 | -1 ± 2 | -12 ± 3 | -2 ± 1 | -12 ± 2 | 378 ± 12 | 18 ± 3 | 117 ± 5 | smaller decreases | smaller decreases | Heart Rate, Change From Baseline (cardiomyopathic hamsters [1]; [6]): 3 ± 8 mm Hg; Heart Rate, Change From Baseline (cardiomyopathic hamsters [1]; [7]): -13 ± 12 mm Hg; Heart Rate, Change From Baseline (cardiomyopathic hamsters [1]; [8]): -1 ± 9 mm Hg; Heart Rate (cardiomyopathic hamsters [1]; [9]): 380 ± 7 beats/min; Left Ventricular End Diastolic Pressure (cardiomyopathic hamsters [1]; [9]): 14 ± 3 mm Hg; Left Ventricular Systolic Pressure (cardiomyopathic hamsters [1]; [9]): 108 ± 5 mm Hg; plasma atrial natriuretic peptide concentration (cardiomyopathic hamsters [2]): doubling |
| CCCCC1=NC2(CCCC2)C(=O)N1Cc1ccc(-c2ccccc2-c2nnn[nH]2)cc1 [BMS 186295, 2-butyl-6,7,8,9-tetrahydro-3-[[2'-(1H-tetrazol-5-yl)[1,1'-biphenyl]-4-yl]-methyl]-1,3-diazaspiro[4.4]nonan-4-one] | 363 ± 20 | 16 ± 2 | 114 ± 2 | 367 ± 18 | 16 ± 2 | 111 ± 2 | 369 ± 28 | 18 ± 3 | 112 ± 5 | -1 ± 1 | 2 ± 2 | -1 ± 1 | -1 ± 2 | 1 ± 2 | 1 ± 5 | 338 ± 16 | 17 ± 2 | 112 ± 2 | no significant effects | no significant effects | pressor responses to angiotensin II, of the response before the administration of the inhibitor (angiotensin II receptors; following 30 µmol/kg, i.v. then 1 µmol/kg per min, up to 150 minutes): less than 17%; Change in mean arterial pressure (angiotensin II receptors; 10′ after 30 µmol/kg, i.v. followed by 1 µmol/kg/min, i.v.): 3±2 mm Hg; Change in mean arterial pressure (angiotensin II receptors; 20′ after 30 µmol/kg, i.v. followed by 1 µmol/kg/min, i.v.): 2±1 mm Hg; Change in mean arterial pressure (angiotensin II receptors; 30′ after 30 µmol/kg, i.v. followed by 1 µmol/kg/min, i.v.): 3±2 mm Hg; Change in mean arterial pressure (angiotensin II receptors; 40′ after 30 µmol/kg, i.v. followed by 1 µmol/kg/min, i.v.): 2±1 mm Hg; Change in mean arterial pressure (angiotensin II receptors; 50′ after 30 µmol/kg, i.v. followed by 1 µmol/kg/min, i.v.): 1±1 mm Hg; Change in mean arterial pressure (angiotensin II receptors; 60′ after 30 µmol/kg, i.v. followed by 1 µmol/kg/min, i.v.): 4±1 mm Hg; Change in mean arterial pressure (angiotensin II receptors; 70′ after 30 µmol/kg, i.v. followed by 1 µmol/kg/min, i.v.): 5±2 mm Hg; Change in mean arterial pressure (angiotensin II receptors; 80′ after 30 µmol/kg, i.v. followed by 1 µmol/kg/min, i.v.): 4±1 mm Hg; Change in mean arterial pressure (angiotensin II receptors; 90′′ after 30 µmol/kg, i.v. followed by 1 µmol/kg/min, i.v.): 3±1 mm Hg; Change in mean arterial pressure (angiotensin II receptors; 150′ after 30 µmol/kg, i.v. followed by 1 µmol/kg/min, i.v.): 2±1 mm Hg; Change in mean arterial pressure (angiotensin II receptors; 120 min after 30 µmol/kg, i.v. followed by 1 µmol/kg/min, i.v.): 3±1 mm Hg; Change in mean arterial pressure (angiotensin II receptors; -10′, before BMS-186295): 31±3 mm Hg; Change in mean arterial pressure (angiotensin II receptors; -20′, before BMS-186295): 29±2 mm Hg; Heart Rate (cardiomyopathic hamsters [1]; [9]): 364 ± 14 beats/min; Left Ventricular End Diastolic Pressure (cardiomyopathic hamsters [1]; [9]): 18 ± 2 mm Hg; Left Ventricular Systolic Pressure (cardiomyopathic hamsters [1]; [9]): 111 ± 1 mm Hg |
